In BindingDB's records for doi:10.1007/s10822-022-00478-x (Roche Innovation Center Basel, F. Hoffmann-La Roche Ltd., 2022):

Biological target: cAMP and cAMP-inhibited cGMP 3',5'-cyclic phosphodiesterase 10A (Homo sapiens, UniProt Q9Y233)
Experiment: PDE10A assay
Method: Compounds were diluted in 20 mM HEPES/NaOH (pH 7.5), 10 mM MgCl2 and 0.05 mg/ml bovine serum albumin. A fixed amount of 2 ng/well human PDE10A enzyme was added and incubated at room temperature for 15 min under agitation. The reaction was started by the addition of the substrate cocktail [3H]cGMP (Perkin Elmer NET337001MC, S.A. 13.5 Ci/mmol) / cGMP at a final concentration of 50 nM and incubated for an additional 15 min. The reaction was stopped by the addition of 0.5 mg/well of Y-Si SPA beads. The plates were shaken for 1 h, followed by a brief centrifugation (170 g for 1 min). The radioactivity bound to the beads was estimated using a TopCount (Perkin-Elmer). For the determination of IC50 values, a four parameters logistics equation was used. pIC50 is defined as − log10(IC50).

Compound: Cn1cc(-c2ccccc2)nc1COc1nc(OC2CCOCC2)c2cc(Cl)ccc2n1 [Roche-Dataset for PDE10A, Compound 100]
- IC50: 16 nM

Compound: O=C(Nc1ccn2nc(-c3ccccc3)nc2c1)c1cc(Cl)nc(NC2CC2)c1 [Roche-Dataset for PDE10A, Compound 101]
- IC50: 6.12 nM

Compound: O=C(NCCc1cnc(-c2ccccc2)[nH]1)c1nc(C2CC2)ccc1Nc1cncnc1 [Roche-Dataset for PDE10A, Compound 102]
- IC50: 2.11 nM

Compound: Cc1c(C(F)(F)F)nc2ccc(C#Cc3nc(-c4ccccc4)cn3C)nn12 [Roche-Dataset for PDE10A, Compound 106]
- IC50: 1.88 nM

Compound: Cn1cc(-c2ccccc2)nc1COc1cc(N2CCOCC2)nc(-c2ccn[nH]2)n1 [Roche-Dataset for PDE10A, Compound 108]
- IC50: 371 nM

Compound: CN(C(=O)c1cnn(C)c1C(=O)N[C@@H]1CCn2c(nc(-c3ccccc3)c2Cl)C1)C1CC1 [Roche-Dataset for PDE10A, Compound 110]
- IC50: 52 nM

Compound: COCCN(C)C(=O)c1cnn(C)c1C(=O)N[C@@H]1CCn2cc(-c3ccccc3)nc2C1 [Roche-Dataset for PDE10A, Compound 112]
- IC50: 34 nM

Compound: Cc1cccc(-c2cn3c(n2)C[C@H](NC(=O)c2c(C(=O)N(C)C4CC4)cnn2C)CC3)c1 [Roche-Dataset for PDE10A, Compound 114]
- IC50: 8.53 nM

Compound: Cn1c(Cl)nc(C(=O)N2CCC2)c1C(=O)Nc1ccn2nc(-c3ccccc3)nc2c1 [Roche-Dataset for PDE10A, Compound 115]
- IC50: 0.45 nM

Compound: CC(C)Oc1cc(C(=O)Nc2ccn3nc(-c4ccccc4)nc3c2)cc(Cl)n1 [Roche-Dataset for PDE10A, Compound 116]
- IC50: 65 nM

Compound: O=C(N[C@@H]1C[C@@H](CO)N(c2ccc(Cl)cn2)C1)c1nc(C2CC2)ccc1Nc1cncnc1 [Roche-Dataset for PDE10A, Compound 118]
- IC50: 2.35 nM

Compound: Cc1c(Cl)cc(OCC(F)(F)F)c2nc(CCc3nc(N4CCCC4)nn3C)nn12 [Roche-Dataset for PDE10A, Compound 119]
- IC50: 0.5 nM

Compound: COc1ccccc1-c1nc2cc(NC(=O)c3c(C(=O)N4CCC4)cnn3C)ccn2n1 [Roche-Dataset for PDE10A, Compound 120]
- IC50: 0.6 nM

Compound: COc1c(Cl)ccc2nc(CCc3nc(-c4ccccc4)cn3C)[nH]c(=O)c12 [Roche-Dataset for PDE10A, Compound 123]
- IC50: 33 nM

Compound: Cn1ncc(C(=O)N(CCO)CCO)c1C(=O)Nc1ccn2nc(-c3ccccc3)nc2c1 [Roche-Dataset for PDE10A, Compound 125]
- IC50: 3.98 nM

Compound: Cc1nc(CCc2nc(-c3ccccc3)cn2C)nc2ccccc12 [Roche-Dataset for PDE10A, Compound 129]
- IC50: 5.25 nM

Compound: O=C(Nc1ccn2nc(-c3ccccc3)nc2c1)c1c(C(=O)N2CCC2)cnn1CCF [Roche-Dataset for PDE10A, Compound 131]
- IC50: 1340 nM

Compound: O=C(Nc1ccn2nc(-c3ccccc3)nc2c1)c1cc(Cl)nc(N2CCCC2)c1 [Roche-Dataset for PDE10A, Compound 132]
- IC50: 48 nM

Compound: CN(C(=O)c1cnn(C)c1C(=O)N[C@@H]1CCn2cc(-c3ccccc3)nc2C1)C1CC1 [Roche-Dataset for PDE10A, Compound 133]
- IC50: 4.3 nM

Compound: Cc1c(Br)cc(C(F)(F)F)c2nc(CCc3nc(N4CCCC4)nn3C)nn12 [Roche-Dataset for PDE10A, Compound 135]
- IC50: 0.43 nM

Compound: CCN(C)C(=O)c1cnn(C)c1C(=O)N[C@@H]1CCn2cc(-c3cccc(OC)c3)nc2C1 [Roche-Dataset for PDE10A, Compound 136]
- IC50: 1730 nM

Compound: Cn1ncc(C(=O)N2CCC2)c1C(=O)Nc1cn(-c2ccc3ccccc3n2)cn1 [Roche-Dataset for PDE10A, Compound 137]
- IC50: 0.7 nM

Compound: COC1CN(C(=O)c2cnn(C)c2C(=O)Nc2ccn3nc(-c4ccccc4)nc3c2)C1 [Roche-Dataset for PDE10A, Compound 139]
- IC50: 25 nM

Compound: Cn1ncc(C(=O)N2CCC2)c1C(=O)Nc1ccn2nc(-c3cccc(F)c3)nc2c1 [Roche-Dataset for PDE10A, Compound 140]
- IC50: 1.06 nM

Compound: Cc1cccc(-c2cn3c(n2)C[C@H](NC(=O)c2c(C(=O)N4CCC4)cnn2C)CC3)c1 [Roche-Dataset for PDE10A, Compound 141]
- IC50: 7.36 nM

Compound: CCN(C)C(=O)c1c(C(=O)Nc2ccn3cc(-c4ccccc4)nc3n2)cnn1C [Roche-Dataset for PDE10A, Compound 144]
- IC50: 10000 nM

Compound: COCCOc1cc(Cl)c(C)n2nc(CCc3nc(N4CCCC4)nn3C)nc12 [Roche-Dataset for PDE10A, Compound 146]
- IC50: 0.17 nM

Compound: COCCN(C)C(=O)c1cnn(C)c1C(=O)Nc1ccn2cc(-c3ccnc(F)c3)nc2n1 [Roche-Dataset for PDE10A, Compound 147]
- IC50: 780 nM

Compound: COc1cccc(-c2cn3c(n2)C[C@H](NC(=O)c2c(C(=O)N4CCC4)cnn2C)CC3)c1 [Roche-Dataset for PDE10A, Compound 148]
- IC50: 910 nM

Compound: O=C1c2ccccc2C(=O)N1CCc1nc(-c2ccccc2)cs1 [Roche-Dataset for PDE10A, Compound 150]
- IC50: 342 nM

Compound: CNC(=O)c1cc2[nH]c(-c3ccccc3)nc2cc1NC(=O)c1oc(COCc2ccccc2)nc1C [Roche-Dataset for PDE10A, Compound 152]
- IC50: 51 nM

Compound: Cc1c(Cl)cc(C(F)(F)F)c2nc(/C=C/c3nc(N4CCCC4)nn3C)nn12 [Roche-Dataset for PDE10A, Compound 154]
- IC50: 2.74 nM

Compound: Cc1c(Cl)cc(C(F)(F)F)c2nc(CCc3nc(N4CCCC4)nn3C)nn12 [Roche-Dataset for PDE10A, Compound 157]
- IC50: 1.1 nM

Compound: COc1cccc(-c2nc3cc(NC(=O)c4c(C(=O)N5CCC5)cnn4C)ccn3n2)n1 [Roche-Dataset for PDE10A, Compound 160]
- IC50: 1.09 nM

Compound: Cn1ncc(C(=O)N2CCC2)c1C(=O)N[C@@H]1CCn2cc(-c3cccc(Cl)c3)nc2C1 [Roche-Dataset for PDE10A, Compound 161]
- IC50: 6.59 nM

Compound: CCc1nc(C)c(C(=O)Nc2cc3nc(-c4ccccc4)[nH]c3cc2C(=O)NCC2(CO)COC2)o1 [Roche-Dataset for PDE10A, Compound 163]
- IC50: 7.27 nM

Compound: Cn1ncc(C(=O)N2CC(F)C2)c1C(=O)Nc1ccn2nc(-c3ccccc3)nc2c1 [Roche-Dataset for PDE10A, Compound 165]
- IC50: 0.36 nM

Compound: Cc1nnc2c(C(=O)NCCc3nc(-c4ccccc4)cn3C)cccn12 [Roche-Dataset for PDE10A, Compound 166]
- IC50: 95 nM

Compound: CN(C)c1cc(C(=O)Nc2ccn3nc(-c4ccccc4)nc3c2)cc(Cl)n1 [Roche-Dataset for PDE10A, Compound 167]
- IC50: 131 nM

Compound: Cn1cc(-c2ccccc2)nc1CCc1nc2ccccc2c(=O)[nH]1 [Roche-Dataset for PDE10A, Compound 170]
- IC50: 60 nM

Compound: CCc1cc(C(F)(F)F)c2nc(CCc3nc(N4CCCC4)nn3C)nn2c1C [Roche-Dataset for PDE10A, Compound 171]
- IC50: 3.37 nM

Compound: Cn1ncc(-c2ccccc2)c1C(=O)Nc1ccn2nc(-c3ccccc3)nc2c1 [Roche-Dataset for PDE10A, Compound 172]
- IC50: 131 nM

Compound: Cc1c(-c2ccccc2)nc2n1CC[C@@H](NC(=O)c1c(C(=O)N3CCC3)cnn1C)C2 [Roche-Dataset for PDE10A, Compound 173]
- IC50: 11 nM

Compound: Cn1ncc(C(=O)N2CCC2)c1C(=O)Nc1ccc2sc(-c3ccccc3)nc2c1 [Roche-Dataset for PDE10A, Compound 174]
- IC50: 0.77 nM
